We go through 1 molecule from patent US12617758B2, “Quinazoline derivative having FLT3 inhibitory activity, and use thereof” (INDUSTRY-UNIVERSITY COOPERATION FOUNDATION HANYANG …, priority 2020, dated 2026).

Holding throughout (test): Kinase panel screening
Common to all, as to type: biochemical

One experiment has as its target T1, FLT3 (Homo sapiens, UniProt P36888).
T1 sequence (P36888 27-993): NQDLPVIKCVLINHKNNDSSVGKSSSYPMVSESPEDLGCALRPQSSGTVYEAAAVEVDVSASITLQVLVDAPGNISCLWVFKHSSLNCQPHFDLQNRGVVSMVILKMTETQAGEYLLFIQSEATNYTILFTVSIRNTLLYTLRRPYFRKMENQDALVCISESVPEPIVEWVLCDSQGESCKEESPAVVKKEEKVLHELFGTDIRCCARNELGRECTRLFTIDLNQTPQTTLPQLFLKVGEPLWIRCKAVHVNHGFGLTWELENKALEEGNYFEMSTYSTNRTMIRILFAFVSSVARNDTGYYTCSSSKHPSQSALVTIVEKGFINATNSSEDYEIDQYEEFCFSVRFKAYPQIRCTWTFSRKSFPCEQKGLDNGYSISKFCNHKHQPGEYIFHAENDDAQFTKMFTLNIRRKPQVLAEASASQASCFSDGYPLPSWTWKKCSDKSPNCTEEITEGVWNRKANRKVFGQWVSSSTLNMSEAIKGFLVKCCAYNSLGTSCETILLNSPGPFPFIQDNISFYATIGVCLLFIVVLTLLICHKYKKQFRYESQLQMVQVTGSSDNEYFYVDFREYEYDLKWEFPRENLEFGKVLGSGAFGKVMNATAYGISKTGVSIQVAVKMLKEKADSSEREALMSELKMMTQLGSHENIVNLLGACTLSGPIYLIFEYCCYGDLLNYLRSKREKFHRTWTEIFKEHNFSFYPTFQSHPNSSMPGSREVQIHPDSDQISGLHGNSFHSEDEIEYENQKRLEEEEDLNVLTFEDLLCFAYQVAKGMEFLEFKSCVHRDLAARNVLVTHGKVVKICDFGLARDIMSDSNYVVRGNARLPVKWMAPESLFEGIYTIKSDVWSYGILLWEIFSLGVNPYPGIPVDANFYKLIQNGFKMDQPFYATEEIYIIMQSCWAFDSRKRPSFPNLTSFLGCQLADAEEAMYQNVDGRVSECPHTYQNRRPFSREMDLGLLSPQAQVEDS
The conditions noted are these: single dose of 10 μM.

For the next experiment, the target named is AXL (Homo sapiens, UniProt P30530). The settings on record: single dose of 10 μM, read-out: % inhibition rate.
For the next experiment, the target named is RON/MST1R (Homo sapiens, UniProt Q04912). The conditions noted are these: single dose of 10 μM, read-out: % inhibition rate.
The target in another experiment is PLK1 (Homo sapiens, UniProt P53350). The settings on record: single dose of 10 μM, read-out: % inhibition rate.
For the next experiment, the target named is IGF1R (Homo sapiens, UniProt P08069). The conditions noted are these: single dose of 10 μM, read-out: % inhibition rate.
The target in the next experiment is c-Kit (Homo sapiens, UniProt P10721). The conditions noted are these: single dose of 10 μM.
For another experiment, the target named is FYN (Homo sapiens, UniProt P06241). The conditions noted are these: single dose of 10 μM, read-out: % inhibition rate.
A further experiment concerns the target LCK (Homo sapiens, UniProt P06239). The settings on record: single dose of 10 μM, read-out: % inhibition rate.
For another experiment, the target named is JNK3 (Homo sapiens, UniProt P53779). The settings on record: single dose of 10 μM, read-out: % inhibition rate.
A further experiment concerns the target c-Src (Homo sapiens, UniProt P12931). The conditions noted are these: single dose of 10 μM, read-out: % inhibition rate.
The next experiment deals with PKA (Homo sapiens, UniProt P17612). The settings on record: single dose of 10 μM, read-out: % inhibition rate.
Another experiment addresses KDR/VEGFR2 (Homo sapiens, UniProt P35968). The conditions noted are these: single dose of 10 μM, read-out: % inhibition rate.
The target of another experiment is GSK3b (Homo sapiens, UniProt P49841). The conditions noted are these: single dose of 10 μM, read-out: % inhibition rate.
Another experiment has as its target FLT1/VEGFR1 (Homo sapiens, UniProt P17948). The settings on record: single dose of 10 μM, read-out: % inhibition rate.
The target in another experiment is LYN (Homo sapiens, UniProt P07948). The conditions noted are these: single dose of 10 μM, read-out: % inhibition rate.
The target in a further experiment is SYK (Homo sapiens, UniProt P43405). The conditions noted are these: single dose of 10 μM, read-out: % inhibition rate.

c-Kit, sequence (P10721 26-976): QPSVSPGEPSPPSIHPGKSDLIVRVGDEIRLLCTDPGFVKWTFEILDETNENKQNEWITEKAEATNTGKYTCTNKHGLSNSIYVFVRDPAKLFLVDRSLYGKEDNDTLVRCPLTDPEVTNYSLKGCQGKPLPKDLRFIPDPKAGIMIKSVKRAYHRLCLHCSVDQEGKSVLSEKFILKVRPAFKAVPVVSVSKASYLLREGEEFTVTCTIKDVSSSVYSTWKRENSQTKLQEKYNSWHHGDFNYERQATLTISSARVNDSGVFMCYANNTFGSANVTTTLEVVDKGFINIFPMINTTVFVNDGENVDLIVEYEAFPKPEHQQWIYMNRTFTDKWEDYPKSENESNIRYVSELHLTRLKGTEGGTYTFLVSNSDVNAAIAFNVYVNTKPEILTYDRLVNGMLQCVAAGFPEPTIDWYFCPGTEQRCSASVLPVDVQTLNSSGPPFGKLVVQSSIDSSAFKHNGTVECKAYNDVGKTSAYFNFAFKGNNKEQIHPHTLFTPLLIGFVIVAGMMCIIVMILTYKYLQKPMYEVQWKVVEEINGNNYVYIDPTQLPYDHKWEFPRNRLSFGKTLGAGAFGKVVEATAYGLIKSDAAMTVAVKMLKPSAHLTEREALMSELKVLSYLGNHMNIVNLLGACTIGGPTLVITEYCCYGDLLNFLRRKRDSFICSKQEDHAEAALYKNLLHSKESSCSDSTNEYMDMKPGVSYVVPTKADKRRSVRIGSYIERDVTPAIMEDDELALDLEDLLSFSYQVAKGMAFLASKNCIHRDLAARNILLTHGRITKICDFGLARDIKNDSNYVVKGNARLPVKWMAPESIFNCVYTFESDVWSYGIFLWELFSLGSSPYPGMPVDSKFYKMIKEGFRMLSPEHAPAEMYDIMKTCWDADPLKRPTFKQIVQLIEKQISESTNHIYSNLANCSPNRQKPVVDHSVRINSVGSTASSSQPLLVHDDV
LCK, sequence (P06239 whole entry, species assumed): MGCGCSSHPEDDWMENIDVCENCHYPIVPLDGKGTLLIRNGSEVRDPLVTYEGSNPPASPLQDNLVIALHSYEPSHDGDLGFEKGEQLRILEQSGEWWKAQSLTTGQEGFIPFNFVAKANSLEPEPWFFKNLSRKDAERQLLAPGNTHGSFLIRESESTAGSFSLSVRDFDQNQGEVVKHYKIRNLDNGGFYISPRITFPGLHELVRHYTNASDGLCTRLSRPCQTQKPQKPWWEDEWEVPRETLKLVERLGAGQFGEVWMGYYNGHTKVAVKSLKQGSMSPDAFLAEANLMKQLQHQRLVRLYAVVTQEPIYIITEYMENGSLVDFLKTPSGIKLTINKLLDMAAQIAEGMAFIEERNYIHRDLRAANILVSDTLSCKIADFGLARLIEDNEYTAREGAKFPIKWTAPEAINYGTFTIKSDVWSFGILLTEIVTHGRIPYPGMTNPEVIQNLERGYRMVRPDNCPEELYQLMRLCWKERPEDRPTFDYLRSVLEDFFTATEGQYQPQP
c-Src, sequence (P12931 whole entry, species assumed): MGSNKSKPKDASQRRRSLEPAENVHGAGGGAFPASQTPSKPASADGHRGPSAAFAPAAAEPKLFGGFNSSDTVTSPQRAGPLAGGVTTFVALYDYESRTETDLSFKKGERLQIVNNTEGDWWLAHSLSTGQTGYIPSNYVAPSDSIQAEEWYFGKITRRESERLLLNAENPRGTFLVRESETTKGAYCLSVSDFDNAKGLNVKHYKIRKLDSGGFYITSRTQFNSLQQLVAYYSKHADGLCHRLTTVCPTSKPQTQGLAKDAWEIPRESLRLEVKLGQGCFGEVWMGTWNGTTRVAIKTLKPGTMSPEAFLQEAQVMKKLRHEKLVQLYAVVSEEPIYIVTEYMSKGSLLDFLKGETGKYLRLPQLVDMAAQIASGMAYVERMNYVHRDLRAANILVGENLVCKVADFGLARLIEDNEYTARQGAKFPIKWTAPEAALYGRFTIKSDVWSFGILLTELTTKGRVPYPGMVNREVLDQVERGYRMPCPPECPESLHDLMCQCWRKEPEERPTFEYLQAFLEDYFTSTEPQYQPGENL
KDR/VEGFR2, sequence (P35968 20-1356): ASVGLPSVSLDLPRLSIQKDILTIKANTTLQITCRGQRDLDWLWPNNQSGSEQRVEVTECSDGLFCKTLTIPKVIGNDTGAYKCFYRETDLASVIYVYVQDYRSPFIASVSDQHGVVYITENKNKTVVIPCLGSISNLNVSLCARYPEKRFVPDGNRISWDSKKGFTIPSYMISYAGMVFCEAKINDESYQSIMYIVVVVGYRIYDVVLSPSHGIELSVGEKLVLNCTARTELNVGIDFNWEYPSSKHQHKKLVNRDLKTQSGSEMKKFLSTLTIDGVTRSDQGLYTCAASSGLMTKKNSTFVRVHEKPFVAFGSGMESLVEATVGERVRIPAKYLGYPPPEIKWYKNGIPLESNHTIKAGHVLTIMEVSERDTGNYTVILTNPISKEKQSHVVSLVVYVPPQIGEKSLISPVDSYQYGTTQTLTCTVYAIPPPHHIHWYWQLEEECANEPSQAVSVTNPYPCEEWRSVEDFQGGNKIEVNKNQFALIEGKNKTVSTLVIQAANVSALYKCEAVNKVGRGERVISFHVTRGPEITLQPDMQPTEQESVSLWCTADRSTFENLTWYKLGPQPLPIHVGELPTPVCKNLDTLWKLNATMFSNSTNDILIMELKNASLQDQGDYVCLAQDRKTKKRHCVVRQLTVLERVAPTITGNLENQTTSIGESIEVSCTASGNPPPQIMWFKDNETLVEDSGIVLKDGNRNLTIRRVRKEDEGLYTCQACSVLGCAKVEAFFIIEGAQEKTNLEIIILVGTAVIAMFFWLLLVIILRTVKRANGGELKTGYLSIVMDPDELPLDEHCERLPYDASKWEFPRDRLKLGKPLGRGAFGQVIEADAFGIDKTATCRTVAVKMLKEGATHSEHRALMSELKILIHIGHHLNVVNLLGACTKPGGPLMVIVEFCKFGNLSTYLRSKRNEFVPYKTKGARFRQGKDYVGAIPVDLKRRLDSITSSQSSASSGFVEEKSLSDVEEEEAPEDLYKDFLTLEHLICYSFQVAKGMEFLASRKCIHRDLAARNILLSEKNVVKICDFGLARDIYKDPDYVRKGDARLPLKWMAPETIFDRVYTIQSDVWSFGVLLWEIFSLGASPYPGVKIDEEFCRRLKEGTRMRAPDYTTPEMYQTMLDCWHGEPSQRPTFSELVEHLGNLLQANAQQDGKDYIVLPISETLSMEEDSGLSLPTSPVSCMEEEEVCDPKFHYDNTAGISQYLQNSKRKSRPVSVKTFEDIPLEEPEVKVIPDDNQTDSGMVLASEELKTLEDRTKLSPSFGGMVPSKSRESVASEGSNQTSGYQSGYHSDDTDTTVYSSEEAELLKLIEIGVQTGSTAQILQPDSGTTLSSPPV
RON/MST1R, sequence (Q04912 25-1400): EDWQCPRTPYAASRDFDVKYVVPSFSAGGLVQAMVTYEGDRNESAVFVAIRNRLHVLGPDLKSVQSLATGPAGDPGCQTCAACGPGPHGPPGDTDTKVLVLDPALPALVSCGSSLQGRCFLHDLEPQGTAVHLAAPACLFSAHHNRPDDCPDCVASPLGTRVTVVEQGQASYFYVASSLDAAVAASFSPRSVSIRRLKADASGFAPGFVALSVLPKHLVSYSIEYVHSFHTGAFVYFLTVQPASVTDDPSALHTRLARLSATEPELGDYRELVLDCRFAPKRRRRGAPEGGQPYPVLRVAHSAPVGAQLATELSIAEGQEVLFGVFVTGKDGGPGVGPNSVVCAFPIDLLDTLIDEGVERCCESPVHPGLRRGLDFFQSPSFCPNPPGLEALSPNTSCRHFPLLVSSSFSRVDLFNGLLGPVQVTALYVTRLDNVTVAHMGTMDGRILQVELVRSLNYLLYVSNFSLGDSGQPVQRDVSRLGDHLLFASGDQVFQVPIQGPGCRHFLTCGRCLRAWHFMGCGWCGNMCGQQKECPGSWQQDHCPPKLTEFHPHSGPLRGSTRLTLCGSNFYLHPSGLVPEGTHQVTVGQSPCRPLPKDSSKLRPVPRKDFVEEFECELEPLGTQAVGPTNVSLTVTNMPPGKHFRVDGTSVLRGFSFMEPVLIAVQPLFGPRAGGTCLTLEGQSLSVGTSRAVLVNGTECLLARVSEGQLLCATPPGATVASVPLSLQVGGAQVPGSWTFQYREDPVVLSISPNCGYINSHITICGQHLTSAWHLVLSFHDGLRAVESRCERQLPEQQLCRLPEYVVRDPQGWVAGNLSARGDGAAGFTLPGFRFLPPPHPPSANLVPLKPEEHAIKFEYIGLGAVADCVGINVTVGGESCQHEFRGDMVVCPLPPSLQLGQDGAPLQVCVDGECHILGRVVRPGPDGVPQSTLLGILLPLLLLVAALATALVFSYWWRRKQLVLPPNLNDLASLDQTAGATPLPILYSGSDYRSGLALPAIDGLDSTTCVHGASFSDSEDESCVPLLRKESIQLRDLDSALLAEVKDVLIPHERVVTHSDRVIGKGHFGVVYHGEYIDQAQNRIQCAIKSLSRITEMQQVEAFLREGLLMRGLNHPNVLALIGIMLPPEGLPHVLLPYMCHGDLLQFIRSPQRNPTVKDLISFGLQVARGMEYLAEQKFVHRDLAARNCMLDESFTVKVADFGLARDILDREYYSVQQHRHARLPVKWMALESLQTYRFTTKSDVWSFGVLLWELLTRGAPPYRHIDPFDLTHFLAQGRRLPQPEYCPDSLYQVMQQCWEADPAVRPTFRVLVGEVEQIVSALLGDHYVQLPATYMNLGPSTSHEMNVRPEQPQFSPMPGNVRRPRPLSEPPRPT

As for `Cc1oncc1C(=O)Nc1ccc2cnc(-c3cc(N4CCN(C)CC4)cc(C(F)(F)F)c3)nc2c1` [Compound 7d, 5-methyl-N-(2-(3-(4-methylpiperazin-1-yl)-5-(trifluoromethyl)phenyl)quinazolin-7-yl)isoxazole-4-carboxamide], the “% inhibition rate” value at FLT3 was 96.6%; at c-Kit, “did not exhibit inhibitory activity”. Further, the inhibition (as a rule, the change of the read-out against control, counted positive when it falls) at 10 µM at AXL turned out to be 21.2%; at RON/MST1R it was 13.5%; at PLK1 it was 0%; on IGF1R it was 0%; at c-Kit (read-out: % inhibition rate), 0%; on FYN, 19%. In addition, the inhibition at 10 µM on LCK was 19.7%; at JNK3, 19.5%; on c-Src it was 14.6%; on PKA, 2.5%; on KDR/VEGFR2 it was 16.8%; on GSK3b, 8.06%. Moreover, the inhibition at 10 µM was 5.23% at FLT1/VEGFR1, 20.5% at LYN and 22.4% at SYK.
